From patent US20240374738A1, “BIFUNCTIONAL COMPOUND CAPABLE OF DEGRADING RECEPTOR TYROSINE KINASE AND APPLICATION THEREOF” (TAIBIDI PHARMACEUTICAL TECHNOLOGY (SHIJIAZHUANG) CO., LTD., priority 2023, published 2024)

How the values were obtained:
Type in all cases: cell-based
[1] = target: DDR1 (Homo sapiens, UniProt Q08345); assay: Degradation of DDR1 in tumor cell MKN45 (Western blot); set-up: The degradation activity of the compounds against DDR1 in the MKN45 cell line; endogenous in cells; host or cells: MKN45; conditions: MKN-45, maximum degradation percentage, MKN45 cells, 24 hours
Procedure, shortened: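 MKN45 gastric cancer cells were treated with compound dilutions for 24 h at a final DMSO of 0.5%; the 2 mM–200 nM series is the added solution, not the final concentration. DDR1 in lysates was quantified by Western blot, normalized to GAPDH and expressed relative to blank control, giving DC50 and Dmax.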

[2] = test system: SNU5; assay: Growth inhibition of gastric cancer cells SNU5 (CCK-8); conditions: Homo sapiens, SNU-5, half inhibitory concentration, 72 hours
Procedure, shortened: (§1)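 MKN45 or SNU5 cells in 96-well plates were treated with compound dilution series in triplicate for 72 h. Viability was read by CCK-8 (1 h, absorbance 450 nm), and inhibition was calculated against blank and medium-only controls. IC50 came from concentration-response curves.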

[3] = test system: MKN45; assay: Growth inhibition of gastric cancer cells MKN45 (CCK-8); conditions: Homo sapiens, MKN-45, half inhibitory concentration, 72 hours
Procedure, shortened: as §1

Sequence of DDR1 (Q08345 19-913): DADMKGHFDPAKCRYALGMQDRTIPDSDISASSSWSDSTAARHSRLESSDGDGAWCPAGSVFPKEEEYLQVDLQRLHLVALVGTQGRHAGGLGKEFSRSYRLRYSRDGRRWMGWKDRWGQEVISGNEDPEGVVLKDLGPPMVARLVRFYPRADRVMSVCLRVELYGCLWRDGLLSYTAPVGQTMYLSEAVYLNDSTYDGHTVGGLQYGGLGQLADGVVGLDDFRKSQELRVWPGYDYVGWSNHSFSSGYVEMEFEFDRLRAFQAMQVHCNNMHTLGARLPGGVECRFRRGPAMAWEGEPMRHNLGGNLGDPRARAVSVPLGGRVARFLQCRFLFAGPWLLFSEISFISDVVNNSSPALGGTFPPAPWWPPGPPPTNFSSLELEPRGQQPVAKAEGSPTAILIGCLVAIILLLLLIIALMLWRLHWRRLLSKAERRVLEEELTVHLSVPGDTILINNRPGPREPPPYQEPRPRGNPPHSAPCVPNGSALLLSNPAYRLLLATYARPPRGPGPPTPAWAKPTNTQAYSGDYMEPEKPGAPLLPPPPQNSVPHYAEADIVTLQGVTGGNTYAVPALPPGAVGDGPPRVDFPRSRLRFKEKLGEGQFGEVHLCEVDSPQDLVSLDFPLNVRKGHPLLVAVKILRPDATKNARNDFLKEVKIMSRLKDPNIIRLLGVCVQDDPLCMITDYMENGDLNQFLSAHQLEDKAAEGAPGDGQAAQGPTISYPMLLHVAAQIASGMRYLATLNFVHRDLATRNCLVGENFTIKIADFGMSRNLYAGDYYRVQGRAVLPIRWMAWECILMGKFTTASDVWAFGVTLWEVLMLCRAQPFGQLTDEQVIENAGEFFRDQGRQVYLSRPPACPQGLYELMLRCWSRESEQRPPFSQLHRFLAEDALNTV

Row | Compound | Dmax [1] [%] | IC50 [2] [nM] | IC50 [3] [nM]
1 | COc1cc2c(Oc3ccc(NC(=O)C4(C(=O)Nc5ccc(F)cc5)CC4)cc3)ccnc2cc1N1CCC(CN2CCN(CCNc3ccc4c(n3)C(=O)N(C3CCC(=O)NC3=O)C4)CC2)CC1 (stereo not drawn) [TPD12013] | > 85 | 100 to 500 | 100 to 500
2 | COc1cc2c(Oc3ccc(NC(=O)C4(C(=O)Nc5ccc(F)cc5)CC4)cc3)ccnc2cc1N1CCC(CN2CCN(CCNc3nccc4c3CN(C3CCC(=O)NC3=O)C4=O)C(=O)C2)CC1 (stereo not drawn) [TPD12068] | 65 to 75 | ≤ 100 | ≤ 100
3 | COc1cc2c(Oc3ccc(NC(=O)C4(C(=O)Nc5ccc(F)cc5)CC4)cc3)ccnc2cc1N1CCC(CN2C3CC2CN(CCNc2cc4c(cn2)C(=O)N(C2CCC(=O)NC2=O)C4)C3)CC1 (stereo not drawn) [TPD12081] | 75 to 85 | ≤ 100 | ≤ 100
4 | COc1cc2c(Oc3ccc(NC(=O)C4(C(=O)Nc5ccc(F)cc5)CC4)cc3)ccnc2cc1N1CCC(CN2CC3CC(C2)N3CCNc2cc3c(cn2)C(=O)N(C2CCC(=O)NC2=O)C3)CC1 (stereo not drawn) [TPD12082] | 65 to 75 | ≤ 100 | 100 to 500
5 | COc1cc2c(Oc3ccc(NC(=O)C4(C(=O)Nc5ccc(F)cc5)CC4)cc3)ccnc2cc1N1CCC(CN2C3CC2CN(CC(=O)Nc2cc4c(cn2)C(=O)N(C2CCC(=O)NC2=O)C4)C3)CC1 (stereo not drawn) [TPD12083] | 65 to 75 | ≤ 100 | ≤ 100
6 | O=C1CCC(N2Cc3cc(NCCN4C5CC4CN(CC4CCN(c6cc7nccc(Oc8ccc(NC(=O)C9(C(=O)Nc%10ccc(F)cc%10)CC9)cc8)c7cc6F)CC4)C5)ncc3C2=O)C(=O)N1 (stereo not drawn) [TPD12086] | 75 to 85 | ≤ 100 | 100 to 500
7 | O=C1CCC(N2Cc3cc(NC(=O)CN4C5CC4CN(CC4CCN(c6cc7nccc(Oc8ccc(NC(=O)C9(C(=O)Nc%10ccc(F)cc%10)CC9)cc8)c7cc6F)CC4)C5)ncc3C2=O)C(=O)N1 (stereo not drawn) [TPD12088] | 65 to 75 | ≤ 100 | 100 to 500
8 | COc1cc2c(Oc3ccc(NC(=O)C4(C(=O)Nc5ccc(F)cc5)CC4)cc3)ccnc2cc1N1CCC(CN2C[C@@H]3C[C@H]2CN3CCNc2cc3c(cn2)C(=O)N(C2CCC(=O)NC2=O)C3)CC1 (stereo partly drawn) [TPD12096] | 65 to 75 | ≤ 100 | ≤ 100
9 | COc1cc2c(Oc3ccc(NC(=O)C4(C(=O)Nc5ccc(F)cc5)CC4)cc3)ccnc2cc1N1CCC(CN2C[C@H]3C[C@@H]2CN3CCNc2cc3c(cn2)C(=O)N(C2CCC(=O)NC2=O)C3)CC1 (stereo partly drawn) [TPD12097] | 65 to 75 | ≤ 100 | ≤ 100
10 | COc1cc2c(Oc3ccc(NC(=O)C4(C(=O)Nc5ccc(F)cc5)CC4)cc3)ccnc2cc1N1CCC(CN2C[C@@H]3C[C@H]2CN3CC(=O)Nc2cc3c(cn2)C(=O)N(C2CCC(=O)NC2=O)C3)CC1 (stereo partly drawn) [TPD12100] | 65 to 75 | ≤ 100 | ≤ 100
11 | COc1cc2c(Oc3ccc(NC(=O)C4(C(=O)Nc5ccc(F)cc5)CC4)cc3)ccnc2cc1N1CCC(CN2C[C@H]3C[C@@H]2CN3CC(=O)Nc2cc3c(cn2)C(=O)N(C2CCC(=O)NC2=O)C3)CC1 (stereo partly drawn) [TPD12101] | > 85 | ≤ 100 | ≤ 100
12 | O=C1CCC(N2Cc3cc(NC(=O)CN4C[C@@H]5C[C@H]4CN5CC4CCN(c5cc6nccc(Oc7ccc(NC(=O)C8(C(=O)Nc9ccc(F)cc9)CC8)cc7)c6cc5F)CC4)ncc3C2=O)C(=O)N1 (stereo partly drawn) [TPD12102] | 75 to 85 | ≤ 100 | ≤ 100
13 | COc1cc2c(Oc3ccc(NC(=O)C4(C(=O)Nc5ccc(F)cc5)CC4)cc3)ccnc2cc1N1CCC(CN2C[C@H]3C[C@@H]2CN3CCC(=O)Nc2cc3c(cn2)C(=O)N(C2CCC(=O)NC2=O)C3)CC1 (stereo partly drawn) [TPD12110] | 75 to 85 | ≤ 100 | ≤ 100
14 | COc1cc2c(Oc3ccc(NC(=O)C4(C(=O)Nc5ccc(F)cc5)CC4)cc3)ccnc2cc1N1CCC(CN2C3CC2CN(CCC(=O)Nc2cc4c(cn2)C(=O)N(C2CCC(=O)NC2=O)C4)C3)CC1 (stereo not drawn) [TPD12112] | 65 to 75 | ≤ 100 | ≤ 100
15 | COc1cc2c(Oc3ccc(NC(=O)C4(C(=O)Nc5ccc(F)cc5)CC4)cc3)ccnc2cc1N1CCC(CN2C[C@H]3C[C@@H]2CN3CCCNc2cc3c(cn2)C(=O)N(C2CCC(=O)NC2=O)C3)CC1 (stereo partly drawn) [TPD12116] | 75 to 85 | ≤ 100 | ≤ 100
16 | COc1cc2c(Oc3ccc(NC(=O)C4(C(=O)Nc5ccc(F)cc5)CC4)cc3)ccnc2cc1N1CCC(CN2CC3CC(C2)N3CCCNc2cc3c(cn2)C(=O)N(C2CCC(=O)NC2=O)C3)CC1 (stereo not drawn) [TPD12118] | 65 to 75 | ≤ 100 | ≤ 100
17 | COc1cc2c(Oc3ccc(NC(=O)C4(C(=O)Nc5ccc(F)cc5)CC4)cc3)ccnc2c(F)c1N1CCC(CN2C3CC2CN(CCC(=O)Nc2cc4c(cn2)C(=O)N(C2CCC(=O)NC2=O)C4)C3)CC1 (stereo not drawn) [TPD12139] | 75 to 85 | ≤ 100 | ≤ 100
18 | COc1cc2c(Oc3ccc(NC(=O)C4(C(=O)Nc5ccc(F)cc5)CC4)cc3)ccnc2c(F)c1N1CCC(CN2C3CC2CN(CCC(=O)Nc2cccc4c2CN(C2CCC(=O)NC2=O)C4=O)C3)CC1 (stereo not drawn) [TPD12140] | 65 to 75 | ≤ 100 | ≤ 100
19 | O=C1CCC(N2Cc3cc(NC(=O)CCN4CC5CC(C4)N5CC4CCN(c5cc6nccc(Oc7ccc(NC(=O)C8(C(=O)Nc9ccc(F)cc9)CC8)cc7)c6cc5OC(F)(F)F)CC4)ncc3C2=O)C(=O)N1 (stereo not drawn) [TPD12148] | 65 to 75 | ≤ 100 | ≤ 100
20 | O=C1CCC(N2Cc3c(NC(=O)CCN4CC5CC(C4)N5CC4CCN(c5cc6nccc(Oc7ccc(NC(=O)C8(C(=O)Nc9ccc(F)cc9)CC8)cc7)c6cc5OC(F)(F)F)CC4)cccc3C2=O)C(=O)N1 (stereo not drawn) [TPD12149] | 75 to 85 | ≤ 100 | ≤ 100
21 | O=C1CCC(N2Cc3c(C#CCCN4CC5CC(C4)N5CC4CCN(c5cc6nccc(Oc7ccc(NC(=O)C8(C(=O)Nc9ccc(F)cc9)CC8)cc7)c6cc5OC(F)(F)F)CC4)cccc3C2=O)C(=O)N1 (stereo not drawn) [TPD12150] | 65 to 75 | 100 to 500 | ≤ 100
22 | O=C1CCC(N2Cc3cc(NC(=O)CCN4CC5CC(C4)N5CC4CCN(c5cc6nccc(Oc7ccc(NC(=O)C8(C(=O)Nc9ccc(F)cc9)CC8)cc7)c6cc5F)CC4)ncc3C2=O)C(=O)N1 (stereo not drawn) [TPD12162] | 65 to 75 | ≤ 100 | ≤ 100
23 | O=C1CCC(N2Cc3cc(NC(=O)CN4C[C@@H]5C[C@H]4CN5CC4CCN(c5cc6nccc(Oc7ccc(NC(=O)C8(C(=O)Nc9ccc(F)cc9)CC8)cc7)c6cc5F)CC4)ccc3C2=O)C(=O)N1 (stereo partly drawn) [TPD12205] | 65 to 75 | ≤ 100 | ≤ 100
24 | O=C1CCC(N2Cc3cc(NC(=O)CCN4CC5CC(C4)N5CC4CCN(c5cc6nccc(Oc7ccc(NC(=O)C8(C(=O)Nc9ccc(F)cc9)CC8)cc7)c6cc5F)CC4)ccc3C2=O)C(=O)N1 (stereo not drawn) [TPD12215] | 75 to 85 | ≤ 100 | ≤ 100
25 | COc1cc2c(Oc3ccc(NC(=O)C4(C(=O)Nc5ccc(F)cc5)CC4)cc3)ccnc2cc1N1CCC(CN2C[C@@H]3C[C@H]2CN3CC(=O)Nc2ccc3c(c2)CN(C2CCC(=O)NC2=O)C3=O)CC1 (stereo partly drawn) [TPD12216] | > 85 | ≤ 100 | 500 to 1000
26 | COc1cc2c(Oc3ccc(NC(=O)C4(C(=O)Nc5ccc(F)cc5)CC4)cc3)ccnc2cc1N1CCC(CN2C[C@@H]3C[C@H]2CN3CCC(=O)Nc2ccc3c(c2)CN(C2CCC(=O)NC2=O)C3=O)CC1 (stereo partly drawn) [TPD12218] | 65 to 75 | ≤ 100 | ≤ 100
27 | COc1cc2c(Oc3ccc(NC(=O)C4(C(=O)Nc5ccc(F)cc5)CC4)cc3)ccnc2cc1N1CCC(CN2C3CC2CN(CCC#Cc2cccc4c2CN(C2CCC(=O)NC2=O)C4=O)C3)CC1 (stereo not drawn) [TPD12234] | 75 to 85 | ≤ 100 | ≤ 100
28 | O=C1CCC(N2Cc3c(C#CCCN4CC5CC(C4)N5CC4CCN(c5cc6nccc(Oc7ccc(NC(=O)C8(C(=O)Nc9ccc(F)cc9)CC8)cc7)c6cc5F)CC4)cccc3C2=O)C(=O)N1 (stereo not drawn) [TPD12235] | 65 to 75 | ≤ 100 | ≤ 100
29 | COc1cc2c(Oc3ccc(NC(=O)C4(C(=O)Nc5ccc(F)cc5)CC4)cc3)ccnc2cc1N1CCC(CN2C3CC2CN(CCC#Cc2ccc4c(c2)CN(C2CCC(=O)NC2=O)C4=O)C3)CC1 (stereo not drawn) [TPD12236] | 75 to 85 | ≤ 100 | ≤ 100
